Data as given in the NIST ThermoML archive (doi:10.1021/je050353j).

How the values were obtained:
[1] = refractive index (Na D-line) (dimensionless); details: 298.15 K; 100 kPa; Liquid; Standard Abbe refractometry
[2] = relative permittivity at zero frequency (dimensionless); xn = mol fraction of the nth substance listed; details: 298.15 K, Liquid, Parallel plate capacitor

OCCO [1,2-ethanediol]
Details | refractive index
[1] | 1.4304

OCCO [1,2-ethanediol] + O
relative permittivity at zero frequency, [2]
Details | 100 kPa | 50000 kPa | 100000 kPa | 150000 kPa | 200000 kPa | 250000 kPa | 300000 kPa
x1 = 0.2 | 65.26 | 66.72 | 68.04 | 69.3 | 70.47 | 71.6 | 72.68
x1 = 0.4 | 56.38 | 57.74 | 58.96 | 60.14 | 61.19 | 62.23 | 63.22
x1 = 0.6 | 49.73 | 50.99 | 52.14 | 53.21 | 54.2 | 55.15 | 56.06
x1 = 0.8 | 44.76 | 45.95 | 47.04 | 48.05 | 49 | 49.89 | 50.72

OCC(O)CO [glycerol]
Details | refractive index
[1] | 1.4722

OCC(O)CO [glycerol] + O
relative permittivity at zero frequency, [2]
Details | 100 kPa | 50000 kPa | 100000 kPa | 150000 kPa | 200000 kPa | 250000 kPa | 300000 kPa
x1 = 0.2 | 63.79 | 65.05 | 66.28 | 67.44 | 68.55 | 69.62 | 70.65
x1 = 0.4 | 55.26 | 56.37 | 57.44 | 58.46 | 59.43 | 60.37 | 61.28
x1 = 0.6 | 49.52 | 50.55 | 51.5 | 52.42 | 53.29 | 54.14 | 54.95
x1 = 0.8 | 45.48 | 46.43 | 47.33 | 48.18 | 48.99 | 49.77 | 50.53

O [water] + OCCO
[2], x2 = 0
Details | relative permittivity at zero frequency
100 kPa | 78.39
50000 kPa | 80.18
100000 kPa | 81.88
150000 kPa | 83.47
200000 kPa | 85.01
250000 kPa | 86.48
300000 kPa | 87.94
